Data published in patent publication US9562891B2, “Method for screening patient-specific anti-cancer agent using limiting dilution assay” (Samsung Life Public Welfare Foundation, priority 2013, dated 2017).

Tests used:
[1] = system: 775T cell line (patient-derived brain glioblastoma); assay: Screening of anti-cancer agent using limiting dilution assay (sphere formation, ratio of non-formed wells); format: cell-based, human; conditions: 775T as compared to 448T and 464T cell lines; cultured 2 to 3 weeks (FIG. 5)
Excerpt: The patient-specific anti-cancer agent was screened by using a limiting dilution assay according to the above-described Examples, and a result obtained therefrom was compared with a result separately obtained by a screening method using a 96 well plate. Alginate gel containing 2, 5, 10, 20, 50 or 100 cells was discharged onto each micropillar and was subjected to stamping into a culture medium containing the anti-cancer agent. The anti-cancer agent SU11274 and PHA665752, which is c-Met inhibitor, was treated for each concentration. A size of spheres formed after being cultured for 2 to 3 weeks was automatically measured and analyzed. Whether or not the sphere is formed was determined by culturing cells of the experimental group and the control group up to 4 doubling times and comparing sphere area max values of the biggest spheres among the spheres formed in each well, as shown in FIG. 4. […] Here, the well having sphere area max value smaller than the reference value was determined that the spheres were not formed in the well (non-formed). The well having sphere area max value as the same as the average value of the sphere area max of the control group or higher than that was determined that the sphere were formed in the well (formed). […]

[2] = system: patient-derived cancer cells (brain glioblastoma); assay: Three-dimensional culture of patient-derived cancer cells in alginate on micropillar chip, Calcein AM sphere staining; format: cell-based, human
Experimental: The suspension-cultured neurospheres obtained in Example above were collected and treated with 0.025% trypsin/EDTA for 3 minutes, thereby obtaining cell suspensions at a level of a single cell. The cell suspensions were prepared at a concentration of 4 cells/30 nl, 10 cells/30 nl, 20 cells/30 nl, 40 cells/30 nl, 100 cells/30 nl and 200 cells/30 nl, respectively. 50 μL of 3% alginate (Sigma-Aldrich, US) and 100 μL distilled water were mixed to prepare 1% alginate, and then the cell suspensions and 1% alginate as prepared above were mixed together in the same amount. The prepared alginate/cell mixture was discharged onto the surface-modified micropillar using a microarray spotter (Samsung Electro-Mechanics Co., Korea), followed by gelation for 2 minutes so that an alginate gel containing 2, 5, 10, 20, 50 or 100 cells was fixed onto each micropillar (FIG. 1). Each of 950 nl of 2 μM, 5 μM or 10 μM SU11274 (Sigma-Aldrich, US) was dispersed into a microwell chip (Samsung Electro-Mechanics Co., Korea) and the micropillar chip was subjected to stamping. […] 4 doubling time incubation was performed until spheres were formed from the patient-derived cancer cells, and the micropillar chip was subjected to fluorescence staining. […]

With Cc1[nH]c(/C=C2\C(=O)Nc3ccc(S(=O)(=O)Cc4c(Cl)cccc4Cl)cc32)c(C)c1C(=O)N1CCC[C@@H]1CN1CCCC1 [PHA665752] the “sensitivity of cell line to anti-cancer effect in limiting dilution assay” value [1] was “most sensitive anti-cancer effects”.
Cc1[nH]c(/C=C2\C(=O)Nc3ccc(S(=O)(=O)N(C)c4cccc(Cl)c4)cc32)c(C)c1C(=O)N1CCN(C)CC1 [SU11274] was tested, and the “sensitivity of cell line to anti-cancer effect in limiting dilution assay” value [1] was “most sensitive anti-cancer effects”, the “survival rate of the cancer cells” value ([2]; 2 μM, 5 μM or 10 μM, 2-100 cells per alginate gel, cultured 12 days, Calcein AM staining (FIG. 2)) was “survival rate of the cancer cells were decreased” and the “sphere formation (maximum sphere area)” value ([2]; 5 uM, 12 days, control group sphere areas increased to a maximum of 10.14 times (FIG. 3)) was “did not form the spheres”.
